Source: US7678818B2, “Anthranilamide and 2-amino-heteroarene-carboxamide compounds” (Hoffmann-La Roche Inc., priority 2006, dated 2010)

Molecular target: T1, cholesteryl ester transfer protein (CETP) from human lipoprotein-deprived serum (LPDS) (Homo sapiens, UniProt P11597)
T1 construct: the source of CETP was human lipoprotein-deprived serum (LPDS); from tissue; host or cells: human lipoprotein-deprived serum (LPDS)
T1 sequence (P11597 18-493): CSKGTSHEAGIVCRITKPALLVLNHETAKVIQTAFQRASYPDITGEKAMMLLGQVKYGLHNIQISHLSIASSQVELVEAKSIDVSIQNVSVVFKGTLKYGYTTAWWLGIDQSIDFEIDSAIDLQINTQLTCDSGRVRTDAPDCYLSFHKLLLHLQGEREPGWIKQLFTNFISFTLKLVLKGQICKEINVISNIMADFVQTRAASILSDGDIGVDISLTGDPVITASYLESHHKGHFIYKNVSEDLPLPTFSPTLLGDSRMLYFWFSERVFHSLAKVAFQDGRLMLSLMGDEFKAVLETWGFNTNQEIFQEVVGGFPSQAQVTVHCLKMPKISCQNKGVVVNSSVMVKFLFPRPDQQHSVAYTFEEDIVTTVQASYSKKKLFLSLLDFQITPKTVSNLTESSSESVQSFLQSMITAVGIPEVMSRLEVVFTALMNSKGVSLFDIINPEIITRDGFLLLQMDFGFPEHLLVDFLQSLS
Assay: CETP inhibition in the presence of plasma (SPA assay, CETP source human lipoprotein-deprived serum)
Format: biochemical
Protocol: Activity of CETP inhibitors was determined using a buffer assay system. Partially purified CETP transferred radiolabeled cholesteryl ester from HDL donor particles to biotin-labeled LDL acceptor particles. The reaction was stopped by addition of streptavidin-coupled scintillation proximity assay (SPA) beads. These beads captured the biotinylated acceptor particles and transferred radioactivity was measured. The assay system was purchased and performed according to manufacturer's recommendations (Amersham Biosciences). Inhibitory activity of compounds was determined as percentage of positive control activity containing CETP together with donor and acceptor particles. Serial dilution of compounds was performed in order to determine the IC50 values.
Activity of the compounds was subsequently measured in the presence of plasma using the same assay as described above except that the source of CETP was human lipoprotein-deprived serum (LPDS). Inhibitory activity of compounds was determined as percentage of positive control activity containing all the assay components except compound. Serial dilution of compounds was performed in order to determine the IC50 values.

| SMILES | IC50 |
| --- | --- |
| CC(C)(C)c1ccc(CN(CCc2cccc(C(F)(F)F)c2)C(=O)c2cccnc2N)cc1 [Compound 13.63, 2-Amino-N-(4-tert-butyl-benzyl)-N-[2-(3-trifluoromethyl-phenyl)-ethyl]-nicotinamide] | 30 µM |
| CCC(=O)Nc1ccc(Cl)c(Cl)c1C(=O)N(CCc1cccc(C(F)(F)F)c1)Cc1ccc(C(C)(C)C)cc1 [Compound 13.230, N-(4-tert-Butyl-benzyl)-2,3-dichloro-6-propionylamino-N-[2-(3-trifluoromethyl-phenyl)-ethyl]-benzamide] | 5.61 µM |
| CNc1c(Cl)ccc(F)c1C(=O)N(CCc1cccc(C(F)(F)F)c1)Cc1ccc(C(C)(C)C)cc1 [Compound 13.254, N-(4-tert-Butyl-benzyl)-3-chloro-6-fluoro-2-methylamino-N-[2-(3-trifluoromethyl-phenyl)-ethyl]-benzamide] | 0.295 µM |
